US6060516A, “N^1 -propargylhydrazines, N^2 -propargylhydrazines and their analogs for the treatment of depression, anxiety and neurodegeneration” (CV Technologies, Inc., priority 1998, dated 2000)

Experiments:
[1] = test system: DSP-4 induced noradrenaline depletion in mouse hippocampus; assay: Prevention of DSP-4 induced noradrenaline depletion in mouse hippocampus; type: in vivo; details: for protection against DSP-4 induced noradrenaline depletion / neuroprotective effect: 10 mg/kg, mouse hippocampus, in words
Description: Neuroprotectant activity was evaluated by examining the prevention of DSP-4 induced noradrenaline depletion in mouse hippocampus as described in Yu, P. H., Davis, B. A., Fang, J. and Boulton, A. A. (1994), Neuroprotective effect of some monoamine oxidase-B inhibitors against DSP-4 induced noradrenaline depletion in the mouse hippocampus, J. Neurochem. 63: 1820-1828. Briefly, mice were injected (i.p.) with either 20% DMSO or potential neuroprotectants (10 mg/kg in 20% DMSO). One hour later they were injected with either water or DSP-4 (50 mg/kg in water). One week later the mice were killed and the brains removed and the hippocampus dissected out. The hippocampus was frozen and saved for estimation of noradrenaline and other aminergic neurotransmitters and their metabolites as in Sloley, B. D. and Goldberg J. I. (1991), Determination of γ-glutamyl conjugates of monoamines by means of high-performance liquid chromatography with electrochemical detection and application to gastropod tissues, J. Chromatog. 567: 49-56. The rest of the brain was frozen and retained for estimation of monoamine oxidase activities ex vivo as described earlier.

[2] = test system: serotonin uptake in rat striatal prisms; assay: Serotonin (5-HT) uptake inhibition in rat striatal prisms in vitro; type: biochemical
Description: CVT-P040 was evaluated for the ability to inhibit serotonin uptake in rat striatal prisms using the procedure of Martin, I. L., Baker, G. B. and Mitchell, P. R. (1978), The effect of viloxazine hydrochloride on the transport of noradrenaline, dopamine, 5-hydroxytryptamine and γ-aminobutyric acid in rat brain tissue Neuropharmacology 17: 421-423. Briefly, untreated rats were killed by guillotine decapitation, their brains removed, placed on an ice-cooled plate and the striatum was dissected out from the rest of the brain. The striatum was then chopped into 0.1×0.1×2 mm prisms using a Mcllwain tissue chopper and suspended in 5 volumes incubation medium containing 123 mM sodium chloride, 5 mM potassium chloride, 2.7 mM calcium chloride, 1.2 mM magnesium sulphate, 20 mM TRIS-HCl buffer (pH 7.5), 1 mM ascorbic acid, 10 mM glucose and 12.5 μM nialamide. The suspension was stored out of direct light and buried in ice. Aliquots (1 ml) of the tissue suspension were added to flasks containing 4 ml of incubation medium and this mixture was incubated for 15 min at 37° C. in a shaking water bath. Next, 10 µl of the appropriate chemical was added to each tube except the blanks and controls, followed by the addition of 10 μl of ^3 H-5-HT (final concentration 0.1 μM). The mixtures were incubated for 5 min at 37° C., then quickly filtered with a Millipore vacuum filter apparatus and rinsed two times with 5 ml warm (37° C.) incubation medium. Filters were transferred to scintillation vials and 10 ml Ready Safe scintillation cocktail was added to each. Radioactive content per tube was counted using a liquid scintillation spectrophotometer. Percent 5-HT uptake inhibition was calculated by applying the following equation: [formula]

[3] = test system: DSP-4 induced noradrenaline depletion in mouse hippocampus; assay: Prevention of DSP-4 induced noradrenaline depletion in mouse hippocampus; type: in vivo; details: 10 mg/kg then DSP-4 50 mg/kg; saline control experiment
[4] = test system: MAO-B; assay: MAO-B inhibition ex vivo in DSP-4 treated mice (brain); set-up: species or system mouse
Description: Biochem. Pharmacol. 31: 1417-1424. Radiolabelled β-phenylethylamine was employed as a substrate for monoamine oxidase-B. The compounds of interest were either injected intraperitoneally in DMSO or administered by gavage in water for various periods. The animals were killed by decapitation and the brains and livers immediately removed and frozen until assayed for monoamine oxidase-B activity. Tissues were homogenized and appropriately diluted in buffer prior to incubation. Incubations proceeded at 37° C. for 10 minutes. Incubation was terminated by the addition of acid and the radiolabelled product (phenylacetic acid) was extracted and quantified by liquid scintillation counting procedures. Incubations were done in triplicate and incubations containing phenelzine were included for comparison. The percent inhibition of monoamine oxidase-B activity compared to controls containing no drug was calculated.
Neuroprotectant activity was evaluated by examining the prevention of DSP-4 induced noradrenaline depletion in mouse hippocampus as described in Yu, P. H., Davis, B. A., Fang, J. and Boulton, A. A. (1994), Neuroprotective effect of some monoamine oxidase-B inhibitors against DSP-4 induced noradrenaline depletion in the mouse hippocampus, J. Neurochem. 63: 1820-1828. Briefly, mice were injected (i.p.) with either 20% DMSO or potential neuroprotectants (10 mg/kg in 20% DMSO). […]

[5] = test system: PC12 cells; assay: PC12 neurite outgrowth (neurotrophic effect); type: cell-based; details: for Index of Neurite Outgrowth: seven days
Description: The effects of CVT-P040 on neurite outgrowth in cell culture were investigated using an established PC 12 pheochromocytoma cell culture. The effects of CVT-P040 and nerve growth factor on neurite outgrowth were estimated using the method described by Rydel, R. E and Greene, L. A.(1987), Acidic and basic fibroblast growth factors promote stable neurite outgrowth and basic neuronal differentiation in cultures of PC12 cells, J. Neuroscience 7: 3639-3653. Briefly, PC12 cells were seeded and maintained in 100 cm^2 tissue culture dishes at 37° C. in RPMI1640 media containing 1% antibiotics, 10% heat inactivated horse serum and 5% fetal bovine serum in a water saturated atmosphere of 95% air and 5% CO2. The cells were mechanically dislodged and plated into 35 mm collagen-coated tissue culture dishes containing a total of 2.0 ml complete medium at a density of […]. The medium was changed 3 times/week. Cellular responses to CVT-P040 and nerve growth factor (NGF) were determined by counting the number of PC12 cells containing processes. Photographs of the cells were taken after seven days treatment. Two cell fields were chosen in each dish and the photographs developed and printed. […] The neurite index was calculated using the following formula; Neurite Index=total neurite score (ΣS)/ total cell number (ΣN); ΣS=S1×N+S2×N +S3×N+S4×N, where N is the number of cells in each cell field.

[6] = 10 mg/kg i.p. then DSP-4 50 mg/kg, 20% DMSO control experiment

SMILES: C#CCN(CCc1ccccc1)NC(C)=O [CVT-P041, N^1 -propargyl-N^2 -acetylphenelzine]
- protection against DSP-4 induced noradrenaline depletion / neuroprotective effect [1]: did not exhibit a neuroprotective effect
- % Inhibition (serotonin uptake) ([2]; 1 × 10^-4 M): 22.2 ± 4.6%
- % NA Restoration [3]: -43.2%
- NA [3]: 168 ± 31 ng/g
- MAO-B % Inhibition ([4]; 10 mg/kg then DSP-4 50 mg/kg, saline control experiment): -3.7%

SMILES: C#CCN(N)CCc1ccccc1 [CVT-P040, N^1 -propargylphenelzine]
- % NA Restoration [1, 6]: 55.4%
- NA [1, 6]: 235 ± 26 ng/g
- protection against DSP-4 induced noradrenaline depletion / neuroprotective effect [1]: significantly protected against DSP-4 induced noradrenaline depletion
- % Inhibition (serotonin uptake) ([2]; 1 × 10^-4 M): 90.1 ± 3.3%
- % Inhibition (serotonin uptake) ([2]; 1 × 10^-5 M): 50.2 ± 2.5%
- % Inhibition (serotonin uptake) ([2]; 1 × 10^-6 M): 49.1 ± 4.3%
- neurite index on coadministration with NGF ([5]; CVT-P040 100 μM with 0.3 or 1.0 ng/ml NGF, against NGF alone, in words): increased the neurite index above those cultures receiving 0.3 or 1.0 ng/ml NGF alone
- Index of Neurite Outgrowth ([5]; CVT-P040 100 μM with NGF 0.1 ng/ml): 0.55 ± 0.03
- Index of Neurite Outgrowth ([5]; CVT-P040 100 μM with NGF 0.3 ng/ml): 0.97 ± 0.06
- Index of Neurite Outgrowth ([5]; CVT-P040 100 μM with NGF 1.0 ng/ml): 1.53 ± 0.07
- neurite outgrowth in PC12 cells ([5]; CVT-P040 100 μM, in words): increased neurite outgrowth in PC12 cells
- Index of Neurite Outgrowth ([5]; CVT-P040 100 μM): 0.35 ± 0.03
- MAO-B % Inhibition [4, 6]: 20.3%
